Where a name gives a salt, the structure may show the parent alone. Read-outs that look alike come from different tables or passages of the source.
Experiment: MIC of test compounds against various organisms
Format: cell-based
Protocol: The MIC (μg/ml) of test compounds against various organisms was determined including: S. epidermidis CL7, S. aureus WCUH29, S. pneumoniae 1629, S. pyogenes CN10, H. influenzae ATCC 49247, E.faecalis 2, M. catarrhalis Ravasio, E. coli 7623.

[1] = versus all these organisms (the eight strains of b406), read-out: MIC
[2] = versus some of these organisms (of the eight strains; which ones not given), read-out: MIC

Row | SMILES | MIC [2] | further results
1 | COc1ccc2nccc(NC(=O)[C@]3(O)C=C[C@@H](NCc4ccc5c(n4)NC(=O)CS5)CC3)c2n1 (racemic) [Example 1, (1R,4S)-1-Hydroxy-4-[(3-oxo-3,4-dihydro-2H-pyrido[3,2-b][1,4]thiazin-6-ylmethyl)-amino]-cyclohex-2-enecarboxylic acid (6methoxy-[1,5]naphthyridin-4-yl)-amide dihydrochloride and (1S,4R)-1-Hydroxy-4-[(3-oxo-3,4-dihydro-2H-pyrido[3,2-b][1,4]thiazin-6-ylmethyl)-amino]-cyclohex-2-enecarboxylic acid (6-methoxy-[1,5]naphthyridin-4-yl)-amide dihydrochloride] |  | MIC: ≤ 2 µg/mL
2 | COc1ccc2nccc(NC(=O)[C@]3(O)C=C[C@@H](NCc4ccc5c(n4)NC(=O)CO5)CC3)c2n1 (racemic) [Example 2, (1R,4S)-1-Hydroxy-4-[(3-oxo-3,4-dihydro-2H-pyrido[3,2-b][1,4]oxazin-6-ylmethyl)-amino]-cyclohex-2-enecarboxylic acid (6-methoxy-[1,5]naphthyridin-4-yl)-amide dihydrochloride and (1S,4R)-1-Hydroxy-4-[(3-oxo-3,4-dihydro-2H-pyrido[3,2-b][1,4]oxazin-6-ylmethyl)-amino]-cyclohex-2-enecarboxylic acid (6-methoxy-[1,5]naphthyridin-4-yl)-amide dihydrochloride] |  | MIC: ≤ 2 µg/mL
3 | COc1ccc2nccc(NC(=O)[C@@]3(O)C=C[C@H](NCc4cc5c(cn4)OCCO5)CC3)c2n1 [Example 3] |  | MIC [1]: ≤ 2 µg/mL
4 | COc1ccc2nccc(NC(=O)[C@@]3(O)C=C[C@H](NCc4cnc5c(c4)OCCO5)CC3)c2n1 [Example 5] |  | MIC [1]: ≤ 2 µg/mL
5 | COCCOc1c(F)ccc2nccc(NC(=O)[C@@]3(O)C=C[C@H](NCc4cc5c(cn4)OCCO5)CC3)c12 [Example 11] | ≤ 1 µg/mL | 

Further lines, with some results ahead:

Row | MIC [2] | SMILES | further results
6 | ≤ 1 µg/mL | COc1ccc2nccc(NC(=O)[C@@]3(O)C=C[C@H](NCc4ccc5c(n4)OCCO5)CC3)c2n1 [Example 6] | 
7 | ≤ 1 µg/mL | COc1ccc2nccc(NC(=O)[C@@]3(O)C=C[C@H](NCc4ncc5c(n4)OCCO5)CC3)c2n1 [Example 7] | 
8 | ≤ 1 µg/mL | COc1ccc2nccc(NC(=O)[C@@]3(O)C=C[C@H](NCc4cc5c(cn4)OCCO5)CC3)c2c1F [Example 12] | 
